Measurements from PubChem BioAssay (NCI).
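In this assay, cells in 96-well plates receive the compound at five concentrations for 48 hours. Endpoints are linearly interpolated between the surrounding concentrations. GI50 marks 50% less growth. TGI marks complete inhibition of growth.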

Key:
Assay in all cases: NCI tumour cell line growth inhibition, 48 h; in the data active = GI50 below about 0.43 µM; inactive = the rest
[1] = test system: 786-0 renal
[2] = test system: SR leukemia
[3] = test system: BT-549 breast
[4] = test system: SNB-19 CNS
[5] = test system: HS 578T breast
[6] = test system: MOLT-4 leukemia
[7] = test system: IGROV1 ovarian
[8] = test system: T-47D breast
[9] = test system: NCI-H226 lung
[10] = test system: DU-145 prostate
[11] = test system: OVCAR-5 ovarian
[12] = test system: SW-620 colon
[13] = test system: A549 NSCLC
[14] = test system: U251 CNS
[15] = test system: MDA-MB-435
[16] = test system: TK-10 renal
[17] = test system: SF-268 CNS
[18] = test system: OVCAR-4 ovarian
[19] = test system: KM12 colon
[20] = test system: A498 renal
[21] = test system: CCRF-CEM leukemia
[22] = test system: MCF7 breast
[23] = test system: NCI-H23 lung
[24] = test system: EKVX NSCLC
[25] = test system: SF-295 CNS
[26] = test system: RXF 393 renal
[27] = test system: K-562 leukemia
[28] = test system: UACC-257 melanoma
[29] = test system: HT29 colon
[30] = test system: SK-MEL-28 melanoma
[31] = test system: HCT-15 colon
[32] = test system: NCI-H460 lung
[33] = test system: M14 melanoma
[34] = test system: OVCAR-8 ovarian
[35] = test system: HOP-92 NSCLC
[36] = test system: OVCAR-3 ovarian
[37] = test system: SK-OV-3 ovarian
[38] = test system: ACHN renal
[39] = test system: MDA-MB-231 breast
[40] = test system: PC-3 prostate
[41] = test system: SNB-75 CNS
[42] = test system: SF-539 CNS
[43] = test system: LOX IMVI melanoma
[44] = test system: HCT-116 colon
[45] = test system: CAKI-1 renal
[46] = test system: SK-MEL-2 melanoma
[47] = test system: HOP-62 NSCLC
[48] = test system: HCC-2998 colon
[49] = test system: UO-31 renal
[50] = test system: NCI/ADR-RES ovarian
[51] = test system: HL-60(TB) leukemia
[52] = test system: SN12C renal
[53] = test system: RPMI-8226 leukemia
[54] = test system: SK-MEL-5 melanoma

CCCN(CCC)S(=O)(=O)c1ccc(C(=O)O)cc1.CCCN(CCC)S(=O)(=O)c1ccc(C(=O)O)cc1.[Cl][Pt+2][Cl].[NH2-].[NH2-]
> 58300 nM: TGI [39]
5080 nM: TGI [26]
active: GI50 [2] 112 nM | GI50 [3] 369 nM | GI50 [6] 246 nM | GI50 [8] 349 nM | GI50 [10] 351 nM | GI50 [21] 138 nM | GI50 [22] 149 nM | GI50 [23] 249 nM | GI50 [26] 425 nM | GI50 [27] 179 nM | GI50 [32] 151 nM | GI50 [42] 289 nM | GI50 [43] 349 nM | GI50 [51] 221 nM | GI50 [52] 200 nM | GI50 [53] 289 nM
1900 nM: TGI [3]
24200 nM: TGI [7]
5210 nM: TGI [46]
13300 nM: TGI [41]
> 24100 nM: TGI [30]
2720 nM: TGI [15]
> 85400 nM: TGI [20]
> 95000 nM: TGI [47]
> 21800 nM: TGI [35]
> 27000 nM: TGI [36]
> 45200 nM: TGI [43]
> 100000 nM: TGI [1] | TGI [2] | TGI [5] | TGI [6] | TGI [8] | TGI [10] | TGI [11] | TGI [12] | TGI [13] | TGI [16] | TGI [17] | TGI [18] | TGI [19] | TGI [22] | TGI [24] | TGI [25] | TGI [27] | TGI [28] | TGI [29] | TGI [31] | TGI [33] | TGI [34] | TGI [38] | TGI [40] | TGI [45] | TGI [49] | TGI [50] | TGI [51] | TGI [52]
9490 nM: TGI [48]
> 52000 nM: TGI [44]
22000 nM: TGI [37]
inactive: GI50 [1] 1440 nM | GI50 [4] 1600 nM | GI50 [5] 13900 nM | GI50 [7] 3600 nM | GI50 [9] 4040 nM | GI50 [11] 1440 nM | GI50 [12] 518 nM | GI50 [13] 2890 nM | GI50 [14] 995 nM | GI50 [15] 801 nM | GI50 [16] > 100000 nM | GI50 [17] 700 nM | GI50 [18] 4570 nM | GI50 [19] 2610 nM | GI50 [20] 29600 nM | GI50 [24] 8400 nM | GI50 [25] 1640 nM | GI50 [28] 2130 nM | GI50 [29] 2760 nM | GI50 [30] 733 nM | GI50 [31] > 100000 nM | GI50 [33] 1000 nM | GI50 [34] 1400 nM | GI50 [35] 596 nM | GI50 [36] 1070 nM | GI50 [37] 1580 nM | GI50 [38] 477 nM | GI50 [39] 3150 nM | GI50 [40] 2250 nM | GI50 [41] 666 nM | GI50 [44] 945 nM | GI50 [45] 2270 nM | GI50 [46] 2030 nM | GI50 [47] 653 nM | GI50 [48] 926 nM | GI50 [49] > 72600 nM | GI50 [50] > 100000 nM | GI50 [54] 476 nM
> 84200 nM: TGI [14]
2810 nM: TGI [23]
99600 nM: TGI [9]
60500 nM: TGI [4]
> 33200 nM: TGI [42]
> 68600 nM: TGI [32]
1800 nM: TGI [54]
